Measurements from patent US6667327B2, “Pyridine amido derivatives” (Hoffmann-La Roche Inc., priority 2003, dated 2003).

Tests used:
[1] = target: T1, human MAO-B (Homo sapiens, UniProt P27338); experiment: [3H]Ro 19-6327 binding assay for MAO-B on membranes of transfected EBNA cells; conditions: 20 nM [3H]Ro 19-6327, 1 hour at 25° C., membranes of EBNA cells transfected with human MAO-B
T1 construct: expressed in transfected cells; host or cells: EBNA cells (transient transfection); cell membranes
T1 sequence (P27338 1-520): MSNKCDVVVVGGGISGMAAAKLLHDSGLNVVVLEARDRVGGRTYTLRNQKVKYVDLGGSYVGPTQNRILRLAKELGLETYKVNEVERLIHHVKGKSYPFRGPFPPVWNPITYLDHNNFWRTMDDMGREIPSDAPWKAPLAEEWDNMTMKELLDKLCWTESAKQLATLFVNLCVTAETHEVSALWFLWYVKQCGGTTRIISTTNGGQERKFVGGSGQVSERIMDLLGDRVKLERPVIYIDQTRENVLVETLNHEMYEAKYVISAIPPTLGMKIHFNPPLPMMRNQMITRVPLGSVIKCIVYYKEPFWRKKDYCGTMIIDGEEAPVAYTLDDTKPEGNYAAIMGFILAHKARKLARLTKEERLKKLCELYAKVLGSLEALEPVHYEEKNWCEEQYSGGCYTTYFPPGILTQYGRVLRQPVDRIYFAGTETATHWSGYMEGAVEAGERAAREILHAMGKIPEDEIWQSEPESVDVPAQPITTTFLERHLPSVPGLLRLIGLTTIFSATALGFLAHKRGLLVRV
Protocol: (§1) The cDNA's encoding human MAO-A and MAO-B were transiently transfected into EBNA cells using the procedure described by E.-J. Schlaeger and K. Christensen (Transient Gene Expression in Mammalian Cells Grown in Serum-free Suspension Culture; Cytotechnology, 15: 1-13, 1998). After transfection, cells were homogeneised by means of a Polytron homogeneiser in 20 mM Tris HCI buffer, pH 8.0, containing 0.5 mM EGTA and 0.5 mM phenylmethanesulfonyl fluoride. Cell membranes were obtained by centrifugation at 45,000×g and, after two rinsing step with 20 mM Tris HCI buffer, pH 8.0, containing 0.5 mM EGTA, membranes were eventually re-suspended in the above buffer and aliquots stored at −80° C. until use.
(§2) MAO-A and MAO-B activities were assayed by [^3H]Ro 41-1049 [tritiated N-(2-aminoethyl)-5-(3-fluorophenyl)-4-thiazole-carboxamide] and [^3H] Ro 19-6327 [tritiated N-(2-aminoethyl)-5-chloro-2-pyridinecarboxamide, [^3H] lazabemide] binding, respectively, following the methods described by Cesura et al. (Characterization of the binding of [^3H]Ro 41-1049 to the active site of monoamine oxidase-A, Molec. Pharmacol. 1990, 37, 358-366; [^3H]Ro 19-6327: a reversible ligand and affinity-labeling probe for monoamine oxidase-B, Eur. J. Pharmacol., 1989, 162, 457-465). Briefly, membrane aliquots were incubated in the presence of 20 nM [^3H]Ro 41-1049 (MAO-A assay) and [^3H]Ro 19-6327 (MAO-B assay) for 1 hour at 37° C. and 25° C., respectively, with or without various concentrations of the compounds, in a final volume of 0.2 ml. The incubation buffer consisted of 50 mM Tris, 130 mM NaCl, 5 mM KCI, 1 mM MgCl2, 0.5 mM EGTA, buffered to pH 7.4 with HCl. The assay was terminated by filtering the samples through GF/C filters (Unifilter-96, Canberra Packard). The radioactivity retained on the filters was eventually counted for radioactivity by means of a Packard Top-Count scintillation counter, after addition of Microscint 40 scintillation fluid (Canberra Packard). Non-specific binding was determined in the presence of 10 μM clorgyline for MAO-A or 10 μM L-deprenyl for MAO-B.
(§3) IC50 values, that is, the concentration of a test compound of formula I required to inhibit the MAO-B enzyme activity by 50%, were determined from inhibition curves obtained using nine inhibitor concentrations in duplicate, by fitting data to a four parameter logistic equation using a computer program.

[2] = target: T2, human MAO-A (Homo sapiens, UniProt P21397); experiment: [3H]Ro 41-1049 binding assay for MAO-A on membranes of transfected EBNA cells; conditions: 20 nM [3H]Ro 41-1049, 1 hour at 37° C., membranes of EBNA cells transfected with human MAO-A
T2 construct: expressed in transfected cells; host or cells: EBNA cells (transient transfection); cell membranes
T2 sequence (P21397 1-527): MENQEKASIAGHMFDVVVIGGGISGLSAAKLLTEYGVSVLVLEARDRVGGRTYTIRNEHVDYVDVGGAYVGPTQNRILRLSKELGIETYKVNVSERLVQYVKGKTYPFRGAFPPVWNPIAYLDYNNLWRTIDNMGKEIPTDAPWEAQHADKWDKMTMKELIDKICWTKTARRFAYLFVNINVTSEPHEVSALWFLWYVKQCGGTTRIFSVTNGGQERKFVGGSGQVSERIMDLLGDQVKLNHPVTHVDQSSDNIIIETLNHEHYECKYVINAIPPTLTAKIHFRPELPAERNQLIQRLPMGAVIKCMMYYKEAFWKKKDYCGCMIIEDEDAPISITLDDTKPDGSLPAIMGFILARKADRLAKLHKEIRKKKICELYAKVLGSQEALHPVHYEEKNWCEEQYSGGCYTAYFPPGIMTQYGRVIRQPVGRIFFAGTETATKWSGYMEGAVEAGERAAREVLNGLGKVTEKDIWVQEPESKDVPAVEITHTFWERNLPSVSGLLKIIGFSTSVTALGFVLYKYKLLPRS
Protocol: as §1, §2, §3

Row | IC50 [1] [nM] | IC50 [2] [nM] | Structure (SMILES)
1 | 43 | > 10000 | NC(=O)CNC(=O)c1ccc(OCc2ccc(F)c(F)c2)cn1 [Example 9, 5-(3,4-Difluoro-benzyloxy)-pyridine-2-carboxylic Acid Carbamoylmethyl-amide]
2 | 30 | 4150 | NC(=O)CNC(=O)c1ccc(OCc2cccc(F)c2)nc1 [Example 2, N-Carbamoylmethyl-6-(3-fluoro-benzyloxy)-nicotinamide]
3 | 70 | > 10000 | C[C@H](NC(=O)c1ccc(OCc2ccc(F)cc2)cn1)C(N)=O [Example 11, (S)-5-(4-Fluoro-benzyloxy)-pyridine-2-carboxylic Acid (1-carbamoyl-ethyl)-amide]

More lines, now with the values behind:

Row | Structure (SMILES) | IC50 [1] [nM] | IC50 [2] [nM]
4 | NC(=O)CNC(=O)c1ccc(OCc2cccc(F)c2)cn1 [Example 7, 5-(3-Fluoro-benzyloxy)-pyridine-2-carboxylic Acid Carbamoylmethyl-amide] | 28 | 9160
5 | NC(=O)CNC(=O)c1ccc(OCc2ccc(F)cc2)cn1 [Example 8, 5-(4-Fluoro-benzyloxy)-pyridine-2-carboxylic Acid Carbamoylmethyl-amide] | 30 | > 10000
6 | NC(=O)CNC(=O)c1ccc(OCc2ccccc2)nc1 [Example 1, 6-Benzyloxy-N-carbamoylmethyl-nicotinamide] | 33 | > 10000
